Measured values from BigSolDB 2.1.

Conditions: in water

solubility (mole fraction) (298.15 K)	solubility (mole fraction) (303.15 K)	solubility (mole fraction) (308.15 K)	solubility (mole fraction) (313.15 K)	solubility (mole fraction) (318.15 K)	solubility (mole fraction) (323.15 K)	SMILES
0.000144	0.000155	0.000164	0.000169	0.00017	0.000172	Cc1ccc(C(C)C)cc1O
4.8e-06	6.9e-06	9.9e-06	1.24e-05	1.51e-05	1.89e-05	Cc1ccc(C(C)C)cc1
0.000228	0.00023	0.000254	0.000254	0.000286	0.000312	C=CCc1ccc(O)c(OC)c1

Second part, the compound before the results:

SMILES	solubility (mole fraction) (298.15 K)	solubility (mole fraction) (303.15 K)	solubility (mole fraction) (308.15 K)	solubility (mole fraction) (313.15 K)	solubility (mole fraction) (318.15 K)	solubility (mole fraction) (323.15 K)
Cc1ccc(C)cc1	2.62e-05		3.07e-05			3.65e-05
C=CC(C)(O)CCC=C(C)C (stereo not drawn)	0.000181	0.000332	0.000472	0.000592	0.000844	0.00111
Cc1ccccc1	0.000113		0.000118	0.00012		0.000126
CC(C)=CCC/C(C)=C/CO	0.000103	0.000139	0.000375	0.000643	0.000922	0.00127
CC(C)=CCCC(C)CCO (stereo not drawn)	0.000218	0.000187	0.000187	0.000208	0.000249	0.000308
